Data published in patent US6355799B1, “Substituted benzene compounds, process for their preparation, and herbicidal and defoliant compositions containing them” (ISK Americas Incorporated, priority 1997, dated 2002).

Tests used:
Type in all cases: in vivo
[1] = system: redroot pigweed (Amaranthus retroflexus, AMARE); assay: Pre-emerge test, greenhouse herbicide activity screening; details: pre-emerge, rated 14 days after application, 0 = no damage, 100 = complete death
How it was run: (§1)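 Compounds in acetone were track-sprayed at 15-1000 g ai/ha (187 l/ha) on sandy loam pots: pre-emerge one day after seeding, post-emerge at 2-3 leaf stage with 0.25% v/v non-ionic surfactant. Phytotoxicity was rated 14 days later on a 0 (no damage) to 100 (complete death) scale.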

[2] = system: barnyardgrass (Echinochloa crus-galli, ECHCG); assay: as above; details: pre-emerge, rated 14 days after application, 0 = no damage, 100 = complete death
How it was run: (§2)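 Herbicidal damage is scored 0 (none) to 100 (complete plant death) two weeks after a simulated field spray. Rates span 15–1000 g ai/ha, delivered in acetone at 187 l/ha. For post-emergence treatments, plants have 2–3 leaves and the spray carries 0.25% v/v non-ionic surfactant.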

[3] = system: green foxtail (Setaria viridis, SETVI); assay: as above; details: pre-emerge, rated 14 days after application, 0 = no damage, 100 = complete death
How it was run: as §2

[4] = system: ivyleaf morningglory (Ipomoea hederacea, IPOHE); assay: as above; details: pre-emerge, rated 14 days after application, 0 = no damage, 100 = complete death
How it was run: as §2

[5] = system: johnsongrass (Sorghum halepense, SORHA); assay: as above; details: pre-emerge, rated 14 days after application, 0 = no damage, 100 = complete death
How it was run: as §2

[6] = system: lambsquarters (Chenopodium album, CHEAL); assay: as above; details: pre-emerge, rated 14 days after application, 0 = no damage, 100 = complete death
How it was run: as §2

[7] = system: large crabgrass (Digitaria sanguinalis, DIGSA); assay: as above; details: pre-emerge, rated 14 days after application, 0 = no damage, 100 = complete death
How it was run: as §2

[8] = system: sicklepod (Cassia obtusifolia, CASOB); assay: as above; details: pre-emerge, rated 14 days after application, 0 = no damage, 100 = complete death
How it was run: as §2

[9] = system: velvetleaf (Abutilon theophrasti, ABUTH); assay: as above; details: pre-emerge, rated 14 days after application, 0 = no damage, 100 = complete death
How it was run: as §2

[10] = system: field corn (Zea mays L., var. Dekalb 535, CORN); assay: Pre-emerge test, crop safety; details: pre-emerge, rated 14 days after application, 0 = no damage, 100 = complete death
How it was run: (§3)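 Visual ratings on a 0-100 scale (0 no damage, 100 all plants dead) were taken at 14 days after treatment. Rates of 15-1000 g ai/ha in acetone, 187 l/ha, were sprayed onto soil one day after planting (pre-emerge) or onto 2-3 leaf plants with 0.25% v/v surfactant (post-emerge).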

[11] = system: upland rice (Oryza sp., var. Tebonnet, RICE); assay: Pre-emerge test, crop safety; details: pre-emerge, rated 14 days after application, 0 = no damage, 100 = complete death
How it was run: as §3

[12] = system: barnyardgrass (Echinochloa crus-galli, ECHCG); assay: Post-emerge test, greenhouse herbicide activity screening; details: phytotoxicity rating 0-100 (0 no damage, 100 complete death), 14 days after application
How it was run: as §1

[13] = system: common ragweed (Ambrosia artemisizfolia L., AMBEL); assay: as above; details: phytotoxicity rating 0-100 (0 no damage, 100 complete death), 14 days after application
How it was run: as §1

[14] = system: green foxtail (Setaria viridis, SETVI); assay: as above; details: phytotoxicity rating 0-100 (0 no damage, 100 complete death), 14 days after application
How it was run: as §1

[15] = system: ivyleaf morningglory (Ipomoea hederacea, IPOHE); assay: as above; details: phytotoxicity rating 0-100 (0 no damage, 100 complete death), 14 days after application
How it was run: as §1

[16] = system: johnsongrass (Sorghum halepense, SORHA); assay: as above; details: phytotoxicity rating 0-100 (0 no damage, 100 complete death), 14 days after application
How it was run: as §1

[17] = system: lambsquarters (Chenopodium album, CHEAL); assay: as above; details: phytotoxicity rating 0-100 (0 no damage, 100 complete death), 14 days after application
How it was run: as §1

[18] = system: large crabgrass (Digitaria sanguinalis, DIGSA); assay: as above; details: phytotoxicity rating 0-100 (0 no damage, 100 complete death), 14 days after application
How it was run: as §1

[19] = system: redroot pigweed (Amaranthus retroflexus, AMARE); assay: as above; details: phytotoxicity rating 0-100 (0 no damage, 100 complete death), 14 days after application
How it was run: as §1

[20] = system: sicklepod (Cassia obtusifolia, CASOB); assay: as above; details: phytotoxicity rating 0-100 (0 no damage, 100 complete death), 14 days after application
How it was run: as §1

[21] = system: velvetleaf (Abutilon theophrasti, ABUTH); assay: as above; details: phytotoxicity rating 0-100 (0 no damage, 100 complete death), 14 days after application
How it was run: as §1

[22] = system: field corn (Zea mays L., var. Dekalb 535, CORN); assay: Post-emerge test, crop safety; details: phytotoxicity rating 0-100 (0 no damage, 100 complete death), 14 days after application
How it was run: as §2

[23] = system: upland rice (Oryza sp., var. Tebonnet, RICE); assay: Post-emerge test, crop safety; details: phytotoxicity rating 0-100 (0 no damage, 100 complete death), 14 days after application
How it was run: as §2

CCOC(=O)C(C)Nc1c(OC)c(Cl)cc(F)c1-n1c(=O)cc(C(F)(F)F)n(C)c1=O (stereo not shown) [Compound 1-55]
90: Pre-emerge Herbicidal Activity ABUTH (phytotoxicity rating, scale 0-100) ([9]; 63 g ai/ha) | Pre-emerge Herbicidal Activity ABUTH (phytotoxicity rating, scale 0-100) ([9]; 250 g ai/ha) | Post-emerge Herbicidal Activity ABUTH ([21]; 250 g ai/ha)
50: Pre-emerge Herbicidal Activity DIGSA (phytotoxicity rating, scale 0-100) ([7]; 63 g ai/ha) | Pre-emerge Herbicidal Activity DIGSA (phytotoxicity rating, scale 0-100) ([7]; 250 g ai/ha) | Post-emerge Herbicidal Activity AMBEL ([13]; 250 g ai/ha)
30: Post-emerge Herbicidal Activity IPOHE ([15]; 63 g ai/ha) | Post-emerge Herbicidal Activity DIGSA ([18]; 250 g ai/ha)
95: Pre-emerge Herbicidal Activity CHEAL (phytotoxicity rating, scale 0-100) ([6]; 63 g ai/ha) | Pre-emerge Herbicidal Activity CHEAL (phytotoxicity rating, scale 0-100) ([6]; 250 g ai/ha) | Post-emerge Herbicidal Activity IPOHE ([15]; 250 g ai/ha)
20: Pre-emerge Herbicidal Activity SORHA (phytotoxicity rating, scale 0-100) ([5]; 63 g ai/ha) | Pre-emerge Herbicidal Activity SORHA (phytotoxicity rating, scale 0-100) ([5]; 250 g ai/ha) | Post-emerge Herbicidal Activity CHEAL ([17]; 250 g ai/ha) | Post-emerge Herbicidal Activity CASOB ([20]; 250 g ai/ha)
40: Post-emerge Herbicidal Activity SETVI ([14]; 250 g ai/ha)
80: Post-emerge Herbicidal Activity ABUTH ([21]; 63 g ai/ha)
70: Pre-emerge Herbicidal Activity AMARE (phytotoxicity rating, scale 0-100) ([1]; 63 g ai/ha) | Pre-emerge Herbicidal Activity AMARE (phytotoxicity rating, scale 0-100) ([1]; 250 g ai/ha) | Post-emerge Herbicidal Activity AMBEL ([13]; 63 g ai/ha)
0: Pre-emerge Herbicidal Activity SETVI (phytotoxicity rating, scale 0-100) ([3]; 63 g ai/ha) | Pre-emerge Herbicidal Activity SETVI (phytotoxicity rating, scale 0-100) ([3]; 250 g ai/ha) | Pre-emerge Herbicidal Activity IPOHE (phytotoxicity rating, scale 0-100) ([4]; 63 g ai/ha) | Pre-emerge Herbicidal Activity IPOHE (phytotoxicity rating, scale 0-100) ([4]; 250 g ai/ha) | Pre-emerge Herbicidal Activity CASOB (phytotoxicity rating, scale 0-100) ([8]; 63 g ai/ha) | Pre-emerge Herbicidal Activity CASOB (phytotoxicity rating, scale 0-100) ([8]; 250 g ai/ha) | Pre-emerge crop damage RICE (phytotoxicity rating, scale 0-100) ([11]; 63 g ai/ha) | Pre-emerge crop damage RICE (phytotoxicity rating, scale 0-100) ([11]; 250 g ai/ha) | Post-emerge Herbicidal Activity ECHCG ([12]; 63 g ai/ha) | Post-emerge Herbicidal Activity ECHCG ([12]; 250 g ai/ha) | Post-emerge Herbicidal Activity SETVI ([14]; 63 g ai/ha) | Post-emerge Herbicidal Activity SORHA ([16]; 63 g ai/ha) | Post-emerge Herbicidal Activity SORHA ([16]; 250 g ai/ha) | Post-emerge Herbicidal Activity CHEAL ([17]; 63 g ai/ha) | Post-emerge Herbicidal Activity DIGSA ([18]; 63 g ai/ha) | Post-emerge Herbicidal Activity CORN (crop damage) ([22]; 63 g ai/ha) | Post-emerge Herbicidal Activity RICE (crop damage) ([23]; 63 g ai/ha) | Post-emerge Herbicidal Activity RICE (crop damage) ([23]; 250 g ai/ha)
10: Pre-emerge Herbicidal Activity ECHCG (phytotoxicity rating, scale 0-100) ([2]; 63 g ai/ha) | Pre-emerge Herbicidal Activity ECHCG (phytotoxicity rating, scale 0-100) ([2]; 250 g ai/ha) | Pre-emerge crop damage CORN (phytotoxicity rating, scale 0-100) ([10]; 63 g ai/ha) | Pre-emerge crop damage CORN (phytotoxicity rating, scale 0-100) ([10]; 250 g ai/ha) | Post-emerge Herbicidal Activity AMARE ([19]; 63 g ai/ha) | Post-emerge Herbicidal Activity AMARE ([19]; 250 g ai/ha) | Post-emerge Herbicidal Activity CASOB ([20]; 63 g ai/ha) | Post-emerge Herbicidal Activity CORN (crop damage) ([22]; 250 g ai/ha)
